Key:
[1] = system: cerebral blood flow of cats; assay: Investigation of cerebral blood flow of cats (heat-conducting thermoprobe according to Hensel); format: in vivo; conditions: for Change of blood perfusion half-value time: action time; for Change of blood perfusion Δ λ: heat transfer factor λ
Procedure: The test animals are cats under chloralose urethane narcosis (70+200 mg/kg i.p.). The top of the skull is opened in the area of the frontal gyrus marginalis or suprasylvicus. […] The action time is given as the half value time and the intensity of action is determined according to Golenhofen et al. as a heat transfer factor λ. The recording was performed with thermoprobes using a two-channel Pluvograph of Hartmann & Braun, Frankfurt am Main, Germany. Other circulation parameters recorded at the same time were fed to a Hellige multi-channel recorder.

[2] = Toxicity in mg/kg (mouse); conditions: in vivo
[3] = background statement, in words; cited from earlier work
[4] = system: rate of blood circulation; conditions: background statement, in words; cited from earlier work
[5] = system: cerebral blood flow; assay: Cerebral blood flow, statements in the description; format: in vivo; conditions: in words

CC(O)CCCCn1cnc2c1c(=O)n(C)c(=O)n2C (stereo not shown) [1,3-dimethyl-7-(5-hydroxyhexyl)-xanthine]
Change of blood perfusion half-value time ([1]; 5 mg/kg i.v.): 1.8 min | Change of blood perfusion Δ λ ([1]; 5 mg/kg i.v.): +0.18 | LD50 ([2]; ip): 250 to 500 mg/kg

CC(O)CCCCCn1cnc2c1c(=O)n(C)c(=O)n2C (stereo not shown) [1,3-dimethyl-7-(6-hydroxyheptyl)-xanthine]
Change of blood perfusion half-value time ([1]; 1 mg/kg i.v.): 0.6 min | Change of blood perfusion Δ λ ([1]; 1 mg/kg i.v.): +0.70 | Change of blood perfusion half-value time ([1]; 2 mg/kg i.v.): 1.2 min | Change of blood perfusion Δ λ ([1]; 2 mg/kg i.v.): +0.42 | Change of blood perfusion half-value time ([1]; 5 mg/kg i.v.): 1.8 min | Change of blood perfusion Δ λ ([1]; 5 mg/kg i.v.): +1.17 | LD50 ([2]; ip): 250 to 500 mg/kg

CC(O)Cn1c(=O)c2c(ncn2C)n(C)c1=O (stereo not shown) [1-(2-hydroxypropyl)-3,7-dimethylxanthine]
Change of blood perfusion half-value time ([1]; 5 mg/kg i.v.): 0.50 min | Change of blood perfusion Δ λ ([1]; 5 mg/kg i.v.): -0.25 | Change of blood perfusion half-value time ([1]; 10 mg/kg i.v.): 1.50 min | Change of blood perfusion Δ λ ([1]; 10 mg/kg i.v.): -0.50 | Change of blood perfusion half-value time ([1]; 50 mg/kg i.v.): 17.5 min | Change of blood perfusion Δ λ ([1]; 50 mg/kg i.v.): -5.25 | Change of blood perfusion half-value time ([1]; 100 mg/kg i.v.): 6.5 min | Change of blood perfusion Δ λ ([1]; 100 mg/kg i.v.): -10.00 | water solubility and/or toxicity versus theobromine, theophylline and trialkylxanthines [3]: greater degree of water solubility and/or lower toxicity than theobromine,theophylline and trialkylxanthines | pharmacological activity [4]: reduced pharmacological activity

CC(O)CCCCn1c(=O)c2c(ncn2C)n(C)c1=O (stereo not shown) [1-(5-hydroxyhexyl)-3,7-dimethylxanthine]
Change of blood perfusion half-value time ([1]; 3 mg/kg i.v.): 4.3 min | Change of blood perfusion Δ λ ([1]; 3 mg/kg i.v.): +1.80 | Change of blood perfusion half-value time ([1]; 5 mg/kg i.v.): 5.0 min | Change of blood perfusion Δ λ ([1]; 5 mg/kg i.v.): +1.55 | Change of blood perfusion half-value time ([1]; 10 mg/kg i.v.): 3.5 min | Change of blood perfusion Δ λ ([1]; 10 mg/kg i.v.): +2.65 | LD50 ([2]; iv): 195 mg/kg

Cn1c(=O)c2c(ncn2CC(O)CO)n(C)c1=O (stereo not shown) [7-(2,3-dihydroxypropyl)-1,3-dimethylxanthine]
Change of blood perfusion half-value time ([1]; 10 mg/kg i.v.): 1.7 min | Change of blood perfusion half-value time ([1]; 25 mg/kg i.v.): 6.0 min | Change of blood perfusion Δ λ ([1]; 25 mg/kg i.v.): -0.23 | Change of blood perfusion half-value time ([1]; 50 mg/kg i.v.): 3.0 min | Change of blood perfusion Δ λ ([1]; 50 mg/kg i.v.): +0.20 | Change of blood perfusion half-value time ([1]; 100 mg/kg i.v.): 3.0 min | Change of blood perfusion Δ λ ([1]; 100 mg/kg i.v.): -0.05 | water solubility and/or toxicity versus theobromine, theophylline and trialkylxanthines [3]: greater degree of water solubility and/or lower toxicity than theobromine,theophylline and trialkylxanthines | pharmacological activity [4]: reduced pharmacological activity

CC(O)Cn1cnc2c1c(=O)n(C)c(=O)n2C (stereo not shown) [7-(2-Hydroxypropyl)-1,3-dimethyl-xanthine]
water solubility and/or toxicity versus theobromine, theophylline and trialkylxanthines [3]: greater degree of water solubility and/or lower toxicity than theobromine,theophylline and trialkylxanthines | pharmacological activity [4]: reduced pharmacological activity

Cn1c(=O)c2c(ncn2CCO)n(C)c1=O [7-(2-hydroxyethyl)-1,3-dimethylxanthine]
Change of blood perfusion half-value time ([1]; 5 mg/kg i.v.): 0.23 min | Change of blood perfusion Δ λ ([1]; 5 mg/kg i.v.): -0.50 | Change of blood perfusion half-value time ([1]; 10 mg/kg i.v.): 0.50 min | Change of blood perfusion Δ λ ([1]; 10 mg/kg i.v.): -1.33 | Change of blood perfusion half-value time ([1]; 25 mg/kg i.v.): 6.73 min | Change of blood perfusion Δ λ ([1]; 25 mg/kg i.v.): -2.17 | Change of blood perfusion half-value time ([1]; 50 mg/kg i.v.): 7.17 min | Change of blood perfusion Δ λ ([1]; 50 mg/kg i.v.): -5.33 | Change of blood perfusion half-value time ([1]; 100 mg/kg i.v.): 8.00 min | Change of blood perfusion Δ λ ([1]; 100 mg/kg i.v.): -6.00

Cn1c(=O)c2[nH]cnc2n(C)c1=O.NCCN [theophylline-ethylenediamine, 1,3-dimethylxanthine-ethylene-diamine]
Change of blood perfusion half-value time ([1]; 1 mg/kg i.v.): 1.8 min | Change of blood perfusion Δ λ ([1]; 1 mg/kg i.v.): +0.19 | Change of blood perfusion half-value time ([1]; 2 mg/kg i.v.): 1.8 min | Change of blood perfusion Δ λ ([1]; 2 mg/kg i.v.): +0.15 | Change of blood perfusion half-value time ([1]; 5 mg/kg i.v.): 3.3 min | Change of blood perfusion Δ λ ([1]; 5 mg/kg i.v.): +0.18 | Change of blood perfusion half-value time ([1]; 10 mg/kg i.v.): 1.7 min | Change of blood perfusion Δ λ ([1]; 10 mg/kg i.v.): +0.53 | LD50 ([2]; ip): 217 mg/kg | action on cerebral blood flow [5]: increases the cerebral blood flow, but only to a limited extent and only for a short time

Source: patent publication US4576947A, “Pharmaceutical compositions” (Hoechst Aktiengesellschaft, priority 1972, dated 1986)
